From the supplement of paper PMC8960247
Structures can show the parent of a compound that is named as a salt. ± gives the standard error.

Assays:
621-102 (TSC2-deficient) = assay: relative viability vs DMSO; higher = less cytotoxic; details: serum: 10% FBS, 72 h
621-103 (TSC2-rescued) = assay: as above; details: serum: 10% FBS, 72 h
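Also: immortalized renal angiomyolipoma cells stably carrying empty vector or TSC2, dosed in 384-well plates in DMEM, viability normalized to vehicle-treated wells within each plate.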

SMILES | relative viability (621-102 (TSC2-deficient); 0.0001 µM) | relative viability (621-102 (TSC2-deficient); 0.001 µM) | relative viability (621-102 (TSC2-deficient); 0.01 µM) | relative viability (621-102 (TSC2-deficient); 0.1 µM) | relative viability (621-102 (TSC2-deficient); 1 µM) | relative viability (621-102 (TSC2-deficient); 10 µM) | relative viability (621-103 (TSC2-rescued); 0.0001 µM) | relative viability (621-103 (TSC2-rescued); 0.001 µM) | relative viability (621-103 (TSC2-rescued); 0.01 µM) | relative viability (621-103 (TSC2-rescued); 0.1 µM) | relative viability (621-103 (TSC2-rescued); 1 µM) | relative viability (621-103 (TSC2-rescued); 10 µM)
CN1CCc2c(c3ccccc3n2Cc2ccc(C(=O)NO)cc2)C1 [Tubastatin A HCl] | 73.7 ± 1.7% | 91.6 ± 2.8% | 85.5 ± 1% | 90.1 ± 3.6% | 82.6 ± 2.3% | 75.4 ± 2.7% | 101 ± 2.1% | 102 ± 2.5% | 101 ± 3.4% | 100 ± 2.9% | 98.48 ± 0.54% | 90.6 ± 1.5%
N#CC(=C(/N)Sc1ccccc1N)/C(C#N)=C(\N)Sc1ccccc1N [U0126-EtOH] | 105 ± 3.4% | 103 ± 1.3% | 103 ± 2.5% | 103 ± 1.1% | 99.47 ± 0.83% | 93.3 ± 4.4% | 105 ± 2.4% | 101 ± 1.1% | 99.9 ± 1.5% | 101 ± 2% | 100.6 ± 0.44% | 90.4 ± 1.6%
NC(=O)c1cccc(-c2cccc(OC(=O)NC3CCCCC3)c2)c1 [URB597] | 104.9 ± 0.41% | 107 ± 7% | 109.5 ± 0.46% | 98.4 ± 2.9% | 99.6 ± 4.4% | 92.7 ± 5.8% | 103 ± 3.1% | 106 ± 3.3% | 103 ± 1.4% | 106 ± 2.8% | 104 ± 4% | 112.8 ± 0.77%
CC(C)(C)C#Cc1cc(N(C(=O)[C@H]2CC[C@H](C)CC2)[C@H]2CC[C@H](O)CC2)c(C(=O)O)s1 [VX-222] | 109 ± 1.1% | 117.11 ± 0.037% | 111 ± 2% | 111 ± 1.3% | 103 ± 4.3% | 106 ± 4.4% | 105.5 ± 0.52% | 102.7 ± 0.81% | 100 ± 1.2% | 99.76 ± 0.98% | 104 ± 4.7% | 105.42 ± 0.075%
NC(=O)c1ccc(N(C(N)=O)c2c(F)cccc2F)nc1-c1ccc(F)cc1F [VX-702] | 107 ± 1.9% | 109 ± 1.9% | 96.7 ± 1.6% | 98.6 ± 1.4% | 111.1 ± 0.41% | 104 ± 4% | 101.5 ± 0.42% | 99.8 ± 1.8% | 99.92 ± 0.12% | 99.4 ± 1.5% | 96.56 ± 0.13% | 99.1 ± 1.8%
O=c1ncn2nc(Sc3ccc(F)cc3F)ccc2c1-c1c(Cl)cccc1Cl [VX-745] | 106 ± 5.1% | 112 ± 5.5% | 107 ± 1.1% | 104 ± 2.1% | 106 ± 4% | 93.3 ± 3.9% | 99.1 ± 1% | 101 ± 1.2% | 99.4 ± 1.5% | 100 ± 1.5% | 99.42 ± 0.31% | 98.127 ± 0.049%
CCO[C@@H]1OC(=O)C[C@@H]1NC(=O)[C@@H]1CCCN1C(=O)[C@@H](NC(=O)c1ccc(N)c(Cl)c1)C(C)(C)C [VX-765] | 109 ± 0.74% | 105 ± 4.9% | 116 ± 3.2% | 108 ± 4.6% | 101 ± 4% | 106 ± 1.8% | 111 ± 2.9% | 95.9 ± 4.8% | 101 ± 4.6% | 105 ± 6.8% | 101.8 ± 0.69% | 102 ± 4.9%
CC(C)(C)c1cc(C(C)(C)C)c(NC(=O)c2c[nH]c3ccccc3c2=O)cc1O [VX-770] | 97.8 ± 4.5% | 104 ± 5.4% | 116 ± 2.3% | 119 ± 3.2% | 111 ± 3.6% | 59.3 ± 16% | 101 ± 4.3% | 117 ± 6.1% | 114 ± 4.1% | 110 ± 3.3% | 112 ± 2.9% | 32.3 ± 8.3%
CCCCC(=O)N(Cc1ccc(-c2ccccc2-c2nnn[nH]2)cc1)[C@H](C(=O)O)C(C)C [Valsartan] | 85.7 ± 5% | 113 ± 4.4% | 117.3 ± 1% | 117 ± 5.9% | 107 ± 1.1% | 104 ± 1.3% | 101 ± 3.4% | 118.1 ± 0.48% | 115 ± 1.9% | 114 ± 6.2% | 110.2 ± 0.73% | 115 ± 2.4%
COc1cc2/c(=N/c3ccc(Br)cc3F)nc[nH]c2cc1OCC1CCN(C)CC1 [Vandetanib] | 94.4 ± 4.3% | 101 ± 3.8% | 109 ± 3.6% | 115 ± 1.7% | 102 ± 1.1% | 33.9 ± 2.9% | 102 ± 2.5% | 99.63 ± 0.8% | 98.84 ± 0.35% | 97.74 ± 0.94% | 98.3 ± 0.93% | 11.4 ± 1.8%
CCCc1nc(C)c2c(=O)nc(-c3cc(S(=O)(=O)N4CCN(CC)CC4)ccc3OCC)[nH]n12 [Vardenafil (Vivanza)] | 103 ± 2.4% | 104 ± 1.2% | 104 ± 3.8% | 104.8 ± 0.49% | 96.25 ± 0.9% | 97.2 ± 1.1% | 101 ± 2.4% | 103.3 ± 0.7% | 105 ± 1.5% | 104 ± 1.1% | 98.5 ± 4.4% | 98.6 ± 1.7%
Clc1ccc(Nc2nnc(Cc3ccncc3)c3ccccc23)cc1 [Vatalanib] | 94.7 ± 6.8% | 102 ± 9.1% | 115 ± 1.4% | 108 ± 1.8% | 110 ± 2.7% | 117.2 ± 0.94% | 104 ± 1.1% | 106 ± 2% | 106 ± 2.4% | 105 ± 1.4% | 103 ± 2.8% | 110.66 ± 0.097%
COc1ccc(C(CN(C)C)C2(O)CCCCC2)cc1 (stereo unspecified) [Venlafaxine HCl] | 74.8 ± 0.85% | 101 ± 2.7% | 96.3 ± 9.2% | 107 ± 5.2% | 91.33 ± 0.33% | 91.6 ± 2.6% | 85.8 ± 1.9% | 109.5 ± 0.37% | 101 ± 4.2% | 99.6 ± 1.8% | 96.1 ± 5% | 90.61 ± 0.47%
COC[C@@H](c1ccc(C(F)(F)F)cc1)N1CCN(C2(C)CCN(C(=O)c3c(C)ncnc3C)CC2)C[C@@H]1C [Vicriviroc Malate] | 100.4 ± 0.12% | 106 ± 2.8% | 113 ± 2.9% | 108 ± 3.2% | 100 ± 1.5% | 100.24 ± 0.061% | 102 ± 3.4% | 99.95 ± 0.79% | 101 ± 2.1% | 99.04 ± 0.74% | 96.3 ± 1.4% | 97.62 ± 0.55%
CC[C@]1(O)C[C@H]2CN(CCc3c([nH]c4ccccc34)[C@@](C(=O)OC)(c3cc4c(cc3OC)N(C=O)[C@H]3[C@@](O)(C(=O)OC)[C@H](OC(C)=O)[C@]5(CC)C=CCN6CC[C@]43[C@@H]65)C2)C1 [Vincristine Sulfate] | 42 ± 1.8% | 37.1 ± 4.2% | 41.7 ± 0.87% | 38.6 ± 0.59% | 37 ± 0.55% | 33.5 ± 1.3% | 48.3 ± 0.14% | 38 ± 0.93% | 33.5 ± 0.55% | 30.4 ± 0.59% | 27.1 ± 1.3% | 21.9 ± 0.84%
CC[C@]12C=CCN3CC[C@@]4(c5cc([C@@]6(C(=O)OC)C[C@@H]7C[C@@H](C(C)(F)F)CN(Cc8c6[nH]c6ccccc86)C7)c(OC)cc5N(C)[C@H]4[C@@](O)(C(=O)OC)[C@@H]1OC(C)=O)[C@@H]32 [Vinflunine Tartrate] | 91.28 ± 0.35% | 96.3 ± 1.4% | 64.68 ± 0.39% | 44.8 ± 3.1% | 32 ± 1.2% | 28.9 ± 0.74% | 99.3 ± 1.7% | 93 ± 2.6% | 66.9 ± 1.8% | 34.9 ± 1.6% | 29.8 ± 0.55% | 23.6 ± 0.65%
CCC1=C[C@@H]2CN(C1)Cc1c([nH]c3ccccc13)[C@@](C(=O)OC)(c1cc3c(cc1OC)N(C)[C@H]1[C@@](O)(C(=O)OC)[C@H](OC(C)=O)[C@]4(CC)C=CCN5CC[C@@]31[C@H]54)C2 [Vinorelbine(Navelbine)] | 51.2 ± 1.2% | 41.4 ± 1.7% | 44.2 ± 2.1% | 38.08 ± 0.27% | 36.28 ± 0.14% | 27.51 ± 0.032% | 50.3 ± 2.2% | 37.9 ± 1.1% | 39 ± 0.6% | 31.2 ± 0.92% | 29.86 ± 0.072% | 24.6 ± 0.88%
O=C(CCCCCCC(=O)Nc1ccccc1)NO [Vorinostat] | 117 ± 3.2% | 120 ± 2.4% | 114 ± 2.5% | 106 ± 1.3% | 91.54 ± 0.85% | 63.7 ± 1.4% | 101 ± 2.2% | 98.74 ± 0.07% | 98.14 ± 0.97% | 97.94 ± 0.86% | 97.19 ± 0.86% | 26.6 ± 0.47%
